In patent publication US11827628B2, “Compositions and methods for inhibition of the JAK pathway” (Rigel Pharmaceuticals, Inc., priority 2005, dated 2023):
Structures can show the parent of a compound that is named as a salt.

system: up-regulation of ICAM-1 (CD54) by IFNγ in A549 lung epithelial cells; assay: A549 Epithelial Line Stimulated with IFNγ (ICAM-1 surface expression, FACS); type: cell-based, human; settings: A549 cells stimulated with IFNγ, ICAM-1 expression by FACS; read-out: IC50, Example 43
Procedure, shortened: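 ICAM-1 (CD54) flow cytometry on live-gated A549 cells, geometric mean versus dose giving EC50. Cells received IFNγ at 75 ng/mL for 24 h after a 1 h compound pre-treatment spanning 30 μM to 14 nM in medium with 5% FBS and 0.3% DMSO.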

Compound | IC50 [µM]
NS(=O)(=O)c1cccc(Nc2ncc(F)c(Nc3ccc(Cc4ccncc4)cc3)n2)c1 [III-129, N2-(3-Aminosulfonylphenyl)-5-fluoro-N4-[4-(4-pyridylmethyl)phenyl]-2,4-pyrimidinediamine Methanesulfonic Acid Salt] | 31.3
COc1ccc(Nc2nc(Nc3cccc(S(=O)(=O)NN4CCC(C)CC4)c3)ncc2F)cc1Cl [VI-9, N4-(3-Chloro-4-methoxyphenyl)-5-fluoro-N2-[3-(4-methylpipendin-1-yl)aminosulfonylphenyl]-2,4-pyrimidinediamine] | 9.96
N4-(3,4-Dichlorophenyl)-5-fluoro-N2-[3-(4-methylpipendin-1-yl)aminosulfonylphenyl]-2,4-pyrimidinediamine [VI-10] | 24.9

same assay, conditions: Homo sapiens, A549, A549 cells stimulated with IFNγ, ICAM-1 expression by FACS; read-out: IC50, Example 43

Compound | IC50 [µM]
Cc1cc2ccc(CNc3nc(Nc4cccc(S(N)(=O)=O)c4)ncc3F)cc2[nH]1 [Compound X-3] | 4.98

same assay, conditions: Homo sapiens, A549, A549 epithelial line stimulated with IFNγ; ICAM-1 expression by FACS; read-out: IC50, Example 43

IC50 [µM] | Compound
3.52 | Cc1cnc(Nc2ccc(Cl)c(S(N)(=O)=O)c2)nc1Nc1ccc(CCC#N)cc1 [III-12, N2-(3-Aminosulfonyl-4-chlorophenyl)-N4-[4-(2-cyanoethyl)phenyl]-5-methyl-2,4-pyrimidinediamine]
5.52 | Cc1ccc(Nc2ncc(F)c(Nc3ccc(Oc4cccnc4)cc3)n2)cc1S(N)(=O)=O [II-12, N2-(3-Aminosulfonyl-4-methylphenyl)-5-fluoro-N4-[4-(3-pyridyloxy)phenyl]-2,4-pyrimidinediamine]
10.5 | Cc1cc(COc2ccc(Nc3nc(Nc4cccc(S(N)(=O)=O)c4)ncc3F)cc2)no1 [Compound I-230, N2-(3-Aminosulfonylphenyl)-5-fluoro-N4-[4-(5-methylisoxazol-3-yl)methyleneoxyphenyl]-2,4-pyrimidinediamine]
10.6 | Cc1ccc(Nc2ncc(F)c(NCCc3ccc(-n4ccnc4)cc3)n2)cc1S(N)(=O)=O [III-88, N2-(3-Aminosulfonyl-4-methylphenyl)-5-fluoro-N4-[4-(1-imidazolyl)phenethyl]-2,4-pyrimidinediamine]
11.1 | Cc1cc(COc2ccc(Nc3nc(Nc4cccc(S(=O)(=O)NCc5oc(=O)oc5C)c4)ncc3F)cc2)no1 [Compound I-247, N2-{3-[(N-5-Methyl-1,3-dioxolene-2-one-4-yl)methylene]aminosulfonylphenyl}-5-fluoro-N4-[4-(5-methylisoxazol-3-yl)methyleneoxyphenyl]-2,4-pyrimidinediamine]
21.9 | Cc1cc(Nc2nc(Nc3ccc(C)c(S(N)(=O)=O)c3)ncc2F)ccc1CCC#N [III-19, N2-(3-Aminosulfonyl-4-methylphenyl)-N4-[4-(2-cyanoethyl)-3-methylphenyl]-5-fluoro-2,4-pyrimidinediamine]
6.64 | Cc1cc(Nc2nc(Nc3cccc(S(N)(=O)=O)c3)ncc2F)ccc1CCC#N [III-20, N2-(3-Aminosulfonylphenyl)-N4-[4-(2-cyanoethyl)-3-methylphenyl]-5-fluoro-2,4-pyrimidinediamine]
55.5 | CN(C)C(=O)OCCc1ccc(Nc2nc(Nc3cccc(S(N)(=O)=O)c3)ncc2F)cc1 [III-57, N2-(3-Aminosulfonylphenyl)-N4-{4-[2-(dimethylaminocarbonyloxy)ethyl]phenyl}-5-fluoro-2,4-pyrimidinediamine]
5.77 | Cc1ccc(Nc2nc(Nc3cccc(S(N)(=O)=O)c3)ncc2F)cc1OCCN1CCOCC1 [Compound I-203, N2-(3-Aminosulfonylphenyl)-5-fluoro-N4-[4-methyl-3-(2-morpholinoethyloxy)phenyl]-2,4-pyrimidinediamine]

More lines, now with the values behind:

Compound | IC50 [µM]
Cc1ccc(Nc2ncc(F)c(Nc3ccc(OCC(N)=O)c(F)c3)n2)cc1S(N)(=O)=O [Compound I-102, N4-(4-Aminocarbonylmethoxy-3-fluorophenyl)-N2-(3-aminosulfonyl-4-methylphenyl)-5-fluoro-2,4-pyrimidinediamine] | 43.8
COc1cc(Nc2nc(Nc3ccc(S(N)(=O)=O)cc3)ncc2F)cc(OCC#N)c1OC [Compound I-1, N2-(4-Aminosulphonylphenyl)-N4-(3-cyanomethoxy-4,5-dimethoxyphenyl)-5-fluoro-2,4-pyrimidinediamine] | 18.5
Cc1ccc(Nc2ncc(C)c(Nc3ccc(OCC#N)cc3)n2)cc1S(N)(=O)=O [Compound I-59, N2-(3-Aminosulfonyl-4-methylphenyl)-N4-(4-cyanomethoxyphenyl)-5-methyl-2,4-pyrimidinediamine] | 0.947
Cc1cnc(Nc2cccc(S(N)(=O)=O)c2)nc1Nc1ccc(OCC(=O)N(C)C)c(F)c1 [Compound I-138, N2-(3-Aminosulfonylphenyl)-N4-(4-dimethylaminocarbonylmethoxy-3-fluorophenyl)-5-methyl-2,4-pyrimidinediamine] | 91.5
Cc1cnc(Nc2cccc(S(N)(=O)=O)c2)nc1Nc1ccc(OCC(=O)N(C)C)c(Cl)c1 [Compound I-135, N2-(3-Aminosulfonylphenyl)-N4-(3-chloro-4-dimethylaminocarbonylmethoxyphenyl)-5-methyl-2,4-pyrimidinediamine] | 3.24
NC(=O)COc1ccc(Nc2nc(Nc3cccc(S(N)(=O)=O)c3)ncc2F)cc1F [Compound I-101, N4-(4-Aminocarbonylmethoxy-3-fluorophenyl)-N2-(3-aminosulfonylphenyl)-5-fluoro-2,4-pyrimidinediamine] | 51.2
Cc1ccc(Nc2ncc(C)c(Nc3ccc(OCC(=O)N(C)C)c(F)c3)n2)cc1S(N)(=O)=O [Compound I-139, N2-(3-Aminosulfonyl-4-methylphenyl)-N4-(4-dimethylaminocarbonylmethoxy-3-fluorophenyl)-5-methyl-2,4-pyrimidinediamine] | 11.6
COc1ccc(Nc2ncc(F)c(Nc3ccc(OCC#N)cc3)n2)cc1S(N)(=O)=O [Compound I-56, N2-(3-Aminosulfonyl-4-methoxyphenyl)-N4-(4-cyanomethoxyphenyl)-5-fluoro-2,4-pyrimidinediamine] | 4.97
NC(=O)COc1ccc(Nc2nc(Nc3ccc(S(N)(=O)=O)cc3)ncc2F)cc1Cl [Compound I-97, N4-(4-Aminocarbonylmethoxy-3-chlorophenyl)-N2-(4-aminosulfonylphenyl)-5-fluoro-2,4-pyrimidinediamine] | 31.1
Cc1ccc(Nc2ncc(C)c(Nc3ccc(OCC(=O)N(C)C)c(Cl)c3)n2)cc1S(N)(=O)=O [Compound I-136, N2-(3-Aminosulfonyl-4-methylphenyl)-N4-(3-chloro-4-dimethylaminocarbonylmethoxyphenyl)-5-methyl-2,4-pyrimidinediamine] | 8.11
Cc1cnc(Nc2cccc(S(N)(=O)=O)c2)nc1Nc1ccc(OCC#N)cc1 [Compound I-58, N2-(3-Aminosulfonylphenyl)-N4-(4-cyanomethoxyphenyl)-5-methyl-2,4-pyrimidinediamine] | 0.73
NC(=O)COc1ccc(Nc2nc(Nc3cccc(S(N)(=O)=O)c3)ncc2F)cc1Cl [Compound I-98, N4-(4-Aminocarbonylmethoxy-3-chlorophenyl)-N2-(3-aminosulfonylphenyl)-5-fluoro-2,4-pyrimidinediamine] | 37.3
Cc1ccc(Nc2ncc(C)c(Nc3ccc(OCC(N)=O)cc3)n2)cc1S(N)(=O)=O [Compound I-110, N4-(4-Aminocarbonylmethoxyphenyl)-N2-(3-aminosulfonyl-4-methylphenyl)-5-methyl-2,4-pyrimidinediamine] | 20.6
